According to patent publication EP4603105A1, “PHARMACEUTICAL COMPOSITION CONTAINING CYCLIC COMPOUND HAVING SELECTIVE KRAS INHIBITORY EFFECT AGAINST HRAS AND NRAS” (CHUGAI SEIYAKU KABUSHIKI KAISHA, priority 2022, dated 2024):
Where a SMILES comes first, the peptide text is derived from it. Bridges are numbered along the chain shown (N, C = ends). [ ]: non-standard residue; d: D form. The star is where a group is joined. hPhe(3-Cl-4-CF3) = N[C@@H](CCc1ccc(C(F)(F)F)c(Cl)c1)C(=O)O; NPrPhe(4-CF3) = CCCN[C@@H](Cc1ccc(C(F)(F)F)cc1)C(=O)O; NMeGly(cPent) = CN[C@H](C(=O)O)C1CCCC1; NMeD = CN[C@@H](CC(=O)O)C(=O)O; NMeL = CN[C@@H](CC(C)C)C(=O)O; Morpholide = C1CN(*)CCO1; Ac5c = NC1(C(=O)O)CCCC1; NcPrGly = O=C(O)CNC1CC1; Sar = CNCC(=O)O

Tests used:
[1] = biological target: HRAS wild-type protein (Homo sapiens, UniProt P01112); assay: Binding to HRAS by surface plasmon resonance (SPR), KD and KD ratio to KRAS
Sequence of HRAS wild-type protein (P01112 whole entry): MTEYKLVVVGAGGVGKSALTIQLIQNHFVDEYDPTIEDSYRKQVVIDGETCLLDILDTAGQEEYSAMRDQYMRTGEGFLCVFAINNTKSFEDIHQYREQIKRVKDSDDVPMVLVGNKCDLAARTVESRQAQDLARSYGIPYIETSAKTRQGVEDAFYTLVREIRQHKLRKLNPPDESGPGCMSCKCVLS
Procedure, shortened: (§1)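 Biotinylated GDP-bound RAS was captured at about 100–300 RU. Running buffer: HBS pH 7.4, 10 mM MgCl2, 10 µM GDP, 1 mM DTT, 0.01% Tween 20, 4% DMSO.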

[2] = system: human lung cancer strain NCI-H441; assay type: cell-based
Procedure, shortened: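 Step one: dispense the test compound in serial DMSO dilutions. Step three: add the reagent and measure […].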

[3] = biological target: GDP-bound NRAS wild-type protein (Homo sapiens, UniProt P01111); assay: Binding to NRAS by surface plasmon resonance (SPR), KD and KD ratio to KRAS
Sequence of GDP-bound NRAS wild-type protein (P01111 whole entry): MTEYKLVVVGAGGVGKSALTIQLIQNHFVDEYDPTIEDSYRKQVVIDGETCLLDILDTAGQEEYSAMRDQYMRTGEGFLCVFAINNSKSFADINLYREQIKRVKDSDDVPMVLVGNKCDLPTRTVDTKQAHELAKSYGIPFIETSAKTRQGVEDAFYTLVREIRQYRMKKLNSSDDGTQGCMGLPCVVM
Procedure, shortened: as §1

[4] = ratio of KD for HRAS wild-type protein to KD for KRAS
[5] = ratio of KD for GDP-bound NRAS wild-type protein to KD for KRAS
[6] = ratio of the KD value with respect to HRAS wild-type protein to the KD value with respect to KRAS
[7] = ratio of the KD value with respect to GDP-bound NRAS wild-type protein to the KD value with respect to KRAS

## CCO[C@@H]1C[C@H]2C(=O)NC3(CCC3)C(=O)N(C)[C@@H](C3CCCC3)C(=O)N(C)[C@H](C(=O)N(C)C)CC(=O)N(C)[C@@H](CC)C(=O)N[C@@H]([C@@H](C)CC)C(=O)N3CCSC[C@H]3C(=O)N(C)[C@H]3C/C=C\CCN(C3=O)[C@@H](Cc3ccc(C(F)(F)F)cc3)C(=O)N(C)CC(=O)N[C@@H](CCc3cc(F)c(C(F)(F)F)c(F)c3)C(=O)N2C1 [PP1060]
[1]; [4]
  HRAS /KRAS: A (a compound having 10 or more and less than 20 is denoted as A)
[2]
  IC50: 307 nM
[3]; [5]
  NRAS /KRAS: A (a compound having 10 or more and less than 20 is denoted as A)

## CCC[C@H]1C(=O)N[C@@H]([C@@H](C)CC)C(=O)N(C)CC(=O)N(C)[C@H]2C/C=C\CCN(C2=O)[C@@H](Cc2ccc(C)cc2)C(=O)N(C)CC(=O)N[C@@H](CCc2ccc(C(F)(F)F)c(OC)c2)C(=O)N2C[C@H](OCC)C[C@H]2C(=O)N(C)C2(CCC2)C(=O)N(C)[C@@H](C2CCCC2)C(=O)N(C)[C@H](C(=O)N2CCCC2)CC(=O)N1C [PP3106]
[1]; [4]
  HRAS /KRAS: A (a compound having 10 or more and less than 20 is denoted as A)
[2]
  IC50: 2.9 nM
[3]; [5]
  NRAS /KRAS: A (a compound having 10 or more and less than 20 is denoted as A)

## CCO[C@@H]1C[C@H]2C(=O)NC3(CCC3)C(=O)N(C)[C@@H](C3CCCC3)C(=O)N(C)[C@H](C(=O)N3CCOCC3)CC(=O)N(C)[C@@H](COC)C(=O)N[C@@H]([C@@H](C)CC)C(=O)N(C)CC(=O)N(C)[C@H]3CCCCCN(C3=O)[C@@H](Cc3ccc(C(F)(F)F)cc3)C(=O)N(C)CC(=O)N[C@@H](CCc3ccc(C(F)(F)F)c(F)c3)C(=O)N2C1 [PP0848]
[1]; [4]
  HRAS /KRAS: B (a compound having 3 or more and less than 10 is denoted as B)
[2]
  IC50: 37.5 nM
[3]; [5]
  NRAS /KRAS: B (a compound having 3 or more and less than 10 is denoted as B)

## CC[C@H](C)[C@@H]1NC(=O)[C@H](CC(C)C)N(C)C(=O)C[C@@H](C(=O)N2CCOCC2)N(C)C(=O)[C@H](C2CCCC2)N(C)C(=O)C2(CCC2)NC(=O)[C@@H]2CCCN2C(=O)[C@H](CCc2cc(F)c(C(F)(F)F)c(F)c2)NC(=O)CN(C)C(=O)[C@H](Cc2ccc(C(F)(F)F)cc2)N2CCCCC[C@@H](C2=O)N(C)C(=O)CN(C)C1=O [PP0497]
[1]; [6]
  HRAS /KRAS: B (a compound having 3 or more and less than 10 is denoted as B)
[2]
  IC50: 44.2 nM
[3]; [7]
  NRAS /KRAS: B (a compound having 3 or more and less than 10 is denoted as B)

## CCC[C@H]1C(=O)N[C@@H]([C@@H](C)CC)C(=O)N(C)CC(=O)N(C)[C@H]2C/C=C\CCN(C2=O)[C@@H](Cc2ccc(C)cc2)C(=O)N(C)CC(=O)N[C@@H](CCc2ccc(Cl)c(OC)c2)C(=O)N2C[C@H](OCC)C[C@H]2C(=O)NC2(CC(C)(C)C2)C(=O)N(C)[C@@H](C2CCCC2)C(=O)N(C)[C@H](C(=O)N(C)C)CC(=O)N1C [PP2790]
[1]; [4]
  HRAS /KRAS: A (a compound having 10 or more and less than 20 is denoted as A)
[2]
  IC50: 59.4 nM
[3]; [5]
  NRAS /KRAS: A (a compound having 10 or more and less than 20 is denoted as A)

## CCC[C@H]1C(=O)N[C@@H]([C@@H](C)CC)C(=O)N(C)CC(=O)N(C)[C@H]2C/C=C\CCN(C2=O)[C@@H](Cc2ccc(C(F)(F)F)cc2)C(=O)N(C)CC(=O)N[C@@H](CCc2ccc(C(F)(F)F)c(Cl)c2)C(=O)N2CCCC[C@H]2C(=O)NC2(CC(C)(C)C2)C(=O)N(C)[C@@H](C(CC)CC)C(=O)N(C)[C@H](C(=O)N(C)C)CC(=O)N1C [PP2928]
[1]; [4]
  HRAS /KRAS: A (a compound having 10 or more and less than 20 is denoted as A)
[2]
  IC50: 168 nM
[3]; [5]
  NRAS /KRAS: AA (a compound having 20 or more is denoted as AA)

## CCCN1C(=O)CN(C)C(=O)CN(C2CC2)C(=O)[C@H]([C@@H](C)CC)NC(=O)[C@H](CC(C)C)N(C)C(=O)C[C@@H](C(=O)N2CCOCC2)N(C)C(=O)[C@H](C2CCCC2)N(C)C(=O)C2(CCCC2)NC(=O)[C@@H]2CCCN2C(=O)[C@H](CCc2ccc(C(F)(F)F)c(Cl)c2)NC(=O)CN(C)C(=O)[C@@H]1Cc1ccc(C(F)(F)F)cc1 [PP0252] ([NMeL]I[NcPrGly][Sar][NPrPhe(4-CF3)][Sar][hPhe(3-Cl-4-CF3)]P[Ac5c][NMeGly(cPent)][NMeD]-Morpholide; lactam N-11)
[1]; [4]
  HRAS /KRAS: B (a compound having 3 or more and less than 10 is denoted as B)
[2]
  IC50: 19.4 nM
[3]; [5]
  NRAS /KRAS: B (a compound having 3 or more and less than 10 is denoted as B)

## CCC[C@H]1C(=O)N[C@@H]([C@@H](C)CC)C(=O)N2CC[C@H]2C(=O)N(C)[C@H]2C/C=C\CCN(C2=O)[C@@H](Cc2ccc(C(F)(F)F)cc2)C(=O)N(C)CC(=O)N[C@@H](CCc2cc(F)c(C(F)(F)F)c(F)c2)C(=O)N2C[C@H](OCC)C[C@H]2C(=O)NC2(CC(C)(C)C2)C(=O)N(C)[C@@H](C2CCCC2)C(=O)N(C)[C@H](C(=O)N(C)C)CC(=O)N1C [PP1925]
[1]; [6]
  HRAS /KRAS: A (a compound having 10 or more and less than 20 is denoted as A)
[2]
  IC50: 9.7 nM
[3]; [7]
  NRAS /KRAS: A (a compound having 10 or more and less than 20 is denoted as A)

## CC[C@H](C)[C@@H]1NC(=O)[C@H](CC(C)C)N(C)C(=O)C[C@@H](C(=O)N(C)C)N(C)C(=O)[C@H](C2CCCC2)N(C)C(=O)C2(CCCC2)NC(=O)[C@@H]2CCCN2C(=O)[C@H](CCc2ccc(C(F)(F)F)c(Cl)c2)NC(=O)CN(C)C(=O)[C@H](Cc2ccc(C(F)(F)F)cc2)N2CC/C=C\COC[C@@H](C2=O)N(C)C(=O)CN(C)C1=O [PP0622]
[1]; [6]
  HRAS /KRAS: B (a compound having 3 or more and less than 10 is denoted as B)
[2]
  IC50: 330 nM
[3]; [7]
  NRAS /KRAS: B (a compound having 3 or more and less than 10 is denoted as B)

## CCO[C@@H]1C[C@H]2C(=O)NC3(CC(C)(C)C3)C(=O)N(C)[C@@H](C3CCCC3)C(=O)N(C)[C@H](C(=O)N(C)C)CC(=O)N(C)[C@H]3CCCCCCc4ccc(cc4)C[C@@H](C(=O)N(C)CC(=O)N[C@@H](CCc4ccc(Cl)c(Cl)c4)C(=O)N2C1)N1CC/C=C\C[C@@H](C1=O)N(C)C(=O)CN(C)C(=O)[C@H]([C@@H](C)CC)NC3=O [PP3071]
[1]; [4]
  HRAS /KRAS: B (a compound having 3 or more and less than 10 is denoted as B)
[2]
  IC50: 6.6 nM
[3]; [5]
  NRAS /KRAS: A (a compound having 10 or more and less than 20 is denoted as A)

## CCO[C@@H]1C[C@H]2C(=O)NC3(CCC3)C(=O)N(C)[C@@H](C(CC)CC)C(=O)N(C)[C@H](C(=O)N3CCCC3)CC(=O)N(C)[C@H]3CCCCC/C=C/c4ccc(cc4)C[C@@H](C(=O)N(C)CC(=O)N[C@@H](CCc4ccc(Cl)c(Cl)c4)C(=O)N2C1)N1CC/C=C\C[C@@H](C1=O)N(C)C(=O)CN(C)C(=O)[C@H]([C@@H](C)CC)NC3=O [PP3052]
[1]; [4]
  HRAS /KRAS: A (a compound having 10 or more and less than 20 is denoted as A)
[2]
  IC50: 27.6 nM
[3]; [5]
  NRAS /KRAS: AA (a compound having 20 or more is denoted as AA)

## CC[C@H](C)[C@@H]1NC(=O)[C@H](CC(C)C)N(C)C(=O)C[C@@H](C(=O)N2CCOCC2)N(CC)C(=O)[C@H](C2CCCC2)N(C)C(=O)C2(CCCC2)NC(=O)[C@@H]2CCCN2C(=O)[C@H](CCc2cc(F)c(C(F)(F)F)c(F)c2)NC(=O)CN(C)C(=O)[C@H](Cc2ccc(C(F)(F)F)cc2)N2CCCCC[C@@H](C2=O)N(C)C(=O)CN(C)C1=O [PP0477]
[1]; [6]
  HRAS /KRAS: A (a compound having 10 or more and less than 20 is denoted as A)
[2]
  IC50: 139 nM
[3]; [7]
  NRAS /KRAS: A (a compound having 10 or more and less than 20 is denoted as A)

## CCO[C@@H]1C[C@H]2C(=O)NC3(CCC3)C(=O)N(C)[C@@H](C3CCCC3)C(=O)N(C)[C@H](C(=O)N(C)C)CC(=O)N(C)[C@@H](CC(C)C)C(=O)N[C@@H]([C@@H](C)CC)C(=O)N(C)CC(=O)N(C)[C@H]3C/C=C\CCN(C3=O)[C@@H](Cc3ccc(C(F)(F)F)cc3)C(=O)N(C)CC(=O)N[C@@H](CCc3cc(F)c(C(F)(F)F)c(F)c3)C(=O)N2C1 [PP1107]
[1]; [4]
  HRAS /KRAS: A (a compound having 10 or more and less than 20 is denoted as A)
[2]
  IC50: 5.4 nM
[3]; [5]
  NRAS /KRAS: A (a compound having 10 or more and less than 20 is denoted as A)

## CCO[C@@H]1C[C@H]2C(=O)NC3(CCC3)C(=O)N(C)[C@@H](C3CCCC3)C(=O)N(C)[C@H](C(=O)N3CCOCC3)CC(=O)N(C)[C@@H](CC(C)C)C(=O)N[C@@H]([C@@H](C)CC)C(=O)N(C)CC(=O)N(C)[C@H]3C/C=C\CCN(C3=O)[C@@H](Cc3ccc(C(F)(F)F)cc3)C(=O)N(C)CC(=O)N[C@@H](CCc3ccc(C(F)(F)F)c(Cl)c3)C(=O)N2C1 [PP0825]
[1]; [4]
  HRAS /KRAS: A (a compound having 10 or more and less than 20 is denoted as A)
[2]
  IC50: 26.5 nM
[3]; [5]
  NRAS /KRAS: A (a compound having 10 or more and less than 20 is denoted as A)

## CCCOC[C@H]1C(=O)N[C@@H]([C@@H](C)CC)C(=O)N(C)CC(=O)N(C)[C@H]2C/C=C\CCN(C2=O)[C@@H](Cc2ccc(C(F)(F)F)cc2)C(=O)N(C)CC(=O)N[C@@H](CCc2cc(F)c(C(F)(F)F)c(F)c2)C(=O)N2C[C@@H](C)C[C@H]2C(=O)NC2(CC(C)(C)C2)C(=O)N(C)[C@@H](C2CCCC2)C(=O)N(C)[C@H](C(=O)N(C)CC)CC(=O)N1C [PP2043]
[1]; [6]
  HRAS /KRAS: A (a compound having 10 or more and less than 20 is denoted as A)
[2]
  IC50: 28 nM
[3]; [7]
  NRAS /KRAS: A (a compound having 10 or more and less than 20 is denoted as A)

## CCO[C@@H]1C[C@H]2C(=O)NC3(CC(C)(C)C3)C(=O)N(C)[C@@H](C(CC)CC)C(=O)N(C)[C@H](C(=O)N3CCCC3)CC(=O)N(C)[C@@H](C)C(=O)N[C@@H]([C@@H](C)CC)C(=O)N(C)CC(=O)N(C)[C@H]3C/C=C\CCN(C3=O)[C@@H](Cc3ccc(C(F)(F)F)cc3)C(=O)N(C)CC(=O)N[C@@H](CCc3ccc(C(F)(F)F)c(OC)c3)C(=O)N2C1 [PP2163]
[1]; [6]
  HRAS /KRAS: A (a compound having 10 or more and less than 20 is denoted as A)
[2]
  IC50: 18.2 nM
[3]; [7]
  NRAS /KRAS: A (a compound having 10 or more and less than 20 is denoted as A)
